Results as given in ChEMBL document CHEMBL1201862, “PubChem BioAssay data set” (2004).
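Step 1: Grow cells in 96-well plates. Step 2: Expose to compound for 48 hours at 5 concentrations. Step 3: Interpolate endpoints linearly; if unreached, use highest concentration. Here, GI50 denotes the concentration required for 50% inhibition of growth.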 The source made the active and inactive calls. Rule as the data show it: active = GI50 up to about 1.1 µM and inactive = higher.

Columns and labels:
Test in all cases: NCI tumour cell line growth inhibition, 48 h
[1] = test system: KM12
[2] = test system: HOP-92
[3] = test system: HCT-15
[4] = test system: SK-MEL-28
[5] = test system: LOX IMVI
[6] = test system: OVCAR-8
[7] = test system: MDA-MB-231
[8] = test system: SW-620
[9] = test system: DMS-114
[10] = test system: CAKI-1
[11] = test system: 786-0
[12] = test system: HT-29
[13] = test system: U-251
[14] = test system: Hs-578T
[15] = test system: SNB-78
[16] = test system: SN12C
[17] = test system: OVCAR-3
[18] = test system: RPMI-8226
[19] = test system: KM-20L2
[20] = test system: NCI-H460
[21] = test system: MDA-N
[22] = test system: CCRF-CEM
[23] = test system: A549
[24] = test system: OVCAR-5
[25] = test system: NCI-H522
[26] = test system: SR
[27] = test system: T47D
[28] = test system: K562
[29] = test system: SF-295
[30] = test system: SK-MEL-5
[31] = test system: Malme-3M
[32] = test system: HOP-62
[33] = test system: HCT-116
[34] = test system: MCF7
[35] = test system: UO-31
[36] = test system: RXF 393
[37] = test system: EKVX
[38] = test system: TK-10
[39] = test system: MOLT-4
[40] = test system: NCI/ADR-RES
[41] = test system: SK-OV-3
[42] = test system: UACC-257
[43] = test system: PC-3
[44] = test system: OVCAR-4
[45] = test system: HL-60
[46] = test system: M19-MEL
[47] = test system: M14
[48] = test system: A498
[49] = test system: NCI-H23
[50] = test system: DU-145
[51] = test system: BT-549
[52] = test system: SK-MEL-2
[53] = test system: HCC 2998
[54] = test system: NCI-H226
[55] = test system: SNB-75
[56] = test system: SF-268
[57] = test system: MDA-MB-435
[58] = test system: SNB-19
[59] = test system: COLO 205
[60] = test system: UACC-62
[61] = test system: SF-539
[62] = test system: IGROV-1
[63] = test system: LXFL 529
[64] = test system: XF498
[65] = test system: ACHN
[66] = test system: DLD-1

Measured: GI50

N=C1C=CC(=C(c2ccc(N)cc2)c2ccc(N)cc2)C=C1
inactive: [1] 3.01 µM | [2] 3.22 µM | [4] 8.13 µM | [5] 3.91 µM | [6] 1.91 µM | [7] 4.66 µM | [8] 3.68 µM | [9] 2.18 µM | [10] 19.1 µM | [11] 2.36 µM | [12] 3.77 µM | [15] 4.14 µM | [17] 10 µM | [18] 2.29 µM | [19] 4.3 µM | [20] 3.61 µM | [21] 4.84 µM | [22] 3.15 µM | [23] 3.73 µM | [24] 9.27 µM | [25] 2.64 µM | [26] 11.1 µM | [28] 2.39 µM | [29] 3.99 µM | [31] 3.18 µM | [32] 3.3 µM | [33] 3.87 µM | [34] 3.11 µM | [35] 12.5 µM | [36] 6.5 µM | [37] 5.58 µM | [38] 10.2 µM | [39] 3.73 µM | [40] 16.2 µM | [41] 13.1 µM | [42] 4.59 µM | [43] 3.12 µM | [44] 9.93 µM | [45] 3.85 µM | [46] 4.13 µM | [47] 4.05 µM | [48] 6.97 µM | [49] 3.63 µM | [50] 5.71 µM | [52] 2.9 µM | [53] 4.93 µM | [54] 3.68 µM | [57] 4.18 µM | [59] 1.64 µM | [60] 3.87 µM | [61] 2.02 µM | [62] 9.86 µM | [63] 1.57 µM | [64] 2.38 µM | [65] 8.17 µM | [66] 5.12 µM
12.8 µM: [3]
active: [13] 0.406 µM | [14] 0.51 µM | [16] 0.444 µM | [27] 0.968 µM | [30] 1.09 µM | [51] 0.982 µM | [55] 0.519 µM | [56] 0.542 µM | [58] 0.532 µM

c1ccc(C2N=NN(c3ccccc3)C2N2CCCCC2)cc1 (centres undefined)
inactive: [1] > 100 µM | [2] 17.3 µM | [4] > 100 µM | [5] > 100 µM | [6] > 10 µM | [8] > 100 µM | [9] > 100 µM | [10] > 100 µM | [11] 64.7 µM | [12] > 100 µM | [13] 56 µM | [15] 75 µM | [16] > 100 µM | [17] > 100 µM | [18] > 100 µM | [19] > 100 µM | [22] > 100 µM | [23] > 100 µM | [24] > 100 µM | [25] > 100 µM | [26] > 100 µM | [28] > 100 µM | [29] 33.8 µM | [30] > 100 µM | [31] > 100 µM | [32] 42.9 µM | [33] > 100 µM | [35] > 100 µM | [37] > 100 µM | [38] > 100 µM | [39] > 100 µM | [41] 38.6 µM | [42] > 100 µM | [44] > 100 µM | [45] > 100 µM | [46] > 100 µM | [47] > 100 µM | [49] > 100 µM | [52] > 100 µM | [53] > 100 µM | [54] > 100 µM | [55] 20 µM | [56] 46.5 µM | [58] > 100 µM | [59] > 100 µM | [60] 67 µM | [61] 55.8 µM | [62] 52.2 µM | [63] > 100 µM | [64] 49.5 µM | [65] > 100 µM | [66] > 100 µM
> 100 µM: [3]
